Reference: patent US7553832B2, “Methods and compositions for specific inhibition of protein splicing by small molecules” (Boston Biomedical Research Institute, priority 2005, dated 2009)
pIC50: −log10 of the molar value. Values after ≈ are worked out from the molar mass of the structure shown. Marks after values point to notes of the source that are not given here.

The molecules below were run on BCG (assay: BCG MIC). Conditions: not given.
Format: cell-based

Row | Compound | BCG MIC
1 | CC1(C)CC(=O)c2c(S(C)(=O)=O)sc(C(=O)OCc3ccccc3)c2C1 [Compound 30] | 20 µg/mL
2 | CS(=O)(=O)c1cc(C(F)(F)F)cc(S(C)(=O)=O)c1S(C)(=O)=O [Compound 3] | 20 µg/mL
3 | CCOC(=O)c1cc(C#N)c(Sc2nnc(SCC3CC3)s2)nc1C(F)(F)F [Compound 71] | 10 µg/mL
4 | O=C(CCl)N1CCN2C(=O)c3ccccc3C12c1ccc(Cl)cc1 (stereo not drawn) [Compound 13] | 20 µg/mL
5 | CCOC(=O)c1cc(C#N)c(Sc2nnc(SC)s2)nc1C(F)(F)F [Compound 72] | 10 µg/mL
6 | O=C(Nc1ccc(F)cc1)c1nnsc1S(=O)(=O)c1ccc(Cl)cc1 [Compound 12] | 20 µg/mL
7 | COc1ccc(NC(=O)C(Cl)=C(Cl)[S+]([O-])Cc2ccc(C)cc2)cn1 (stereo not drawn) [Compound 43] | 1 µg/mL
8 | N#Cc1nccnc1S(=O)(=O)c1cccs1 [Compound 31] | 6 µg/mL
9 | COc1ccc(NC(=O)C(Cl)=C(Cl)[S+]([O-])Cc2ccccc2)cn1 (stereo not drawn) [Compound 9] | 5 µg/mL
10 | Cc1cc(S(=O)(=O)c2ccc(C(F)(F)F)cc2[N+](=O)[O-])c(Cl)cc1Cl [Compound 66] | >20 µg/mL
11 | O=[N+]([O-])c1cc(C(F)(F)F)cc([N+](=O)[O-])c1Sc1nc2ccccc2[nH]1 [Compound 55] | 5 µg/mL
12 | [O-][S+](c1ccc(C(F)(F)F)cc1)c1cnn2c(Cl)nnc2c1 (stereo not drawn) [Compound 45] | 5 µg/mL
13 | O=C(Nn1c(C2CCCCC2)nc2ccccc2c1=O)c1cc([N+](=O)[O-])cc([N+](=O)[O-])c1Cl [Compound 53] | ~20 µg/mL
14 | O=C(c1nnsc1[S+]([O-])c1ccc(Cl)cc1)N1CCCCC1 (stereo not drawn) [Compound 11] | 5 µg/mL

Same assay, conditions: Mycobacterium tuberculosis variant bovis BCG, BCG, read-out: BCG MIC

Row | Compound | MIC
15 | O=S(=O)(c1cccc(C(F)(F)F)c1)c1snnc1-c1ccccc1 [Compound 35] | 20 µg/mL (≈ 54 µM)

What follows are molecules tested on Mtu H37Rv (assay: Mtu H37Rv MIC). Conditions: not given.
Format: cell-based, M. tuberculosis

Row | Compound | Mtu H37Rv MIC
16 | CS(=O)(=O)c1cc(C(F)(F)F)cc(S(C)(=O)=O)c1S(C)(=O)=O [Compound 3] | 20^a μg/ml
17 | CCOC(=O)c1cc(C#N)c(Sc2nnc(SCC3CC3)s2)nc1C(F)(F)F [Compound 71] | 10 µg/mL
18 | O=C(CCl)N1CCN2C(=O)c3ccccc3C12c1ccc(Cl)cc1 (stereo not drawn) [Compound 13] | 10 µg/mL
19 | CCOC(=O)c1cc(C#N)c(Sc2nnc(SC)s2)nc1C(F)(F)F [Compound 72] | 10 µg/mL
20 | O=C(Nc1ccc(F)cc1)c1nnsc1S(=O)(=O)c1ccc(Cl)cc1 [Compound 12] | 10 µg/mL
21 | COc1ccc(NC(=O)C(Cl)=C(Cl)[S+]([O-])Cc2ccc(C)cc2)cn1 (stereo not drawn) [Compound 43] | 2.5 µg/mL
22 | N#Cc1nccnc1S(=O)(=O)c1cccs1 [Compound 31] | 10 µg/mL
23 | COc1ccc(NC(=O)C(Cl)=C(Cl)[S+]([O-])Cc2ccccc2)cn1 (stereo not drawn) [Compound 9] | 5^d μg/ml
24 | O=[N+]([O-])c1cc(C(F)(F)F)cc([N+](=O)[O-])c1Sc1nc2ccccc2[nH]1 [Compound 55] | 20 µg/mL
25 | [O-][S+](c1ccc(C(F)(F)F)cc1)c1cnn2c(Cl)nnc2c1 (stereo not drawn) [Compound 45] | 2.5 µg/mL
26 | O=C(c1nnsc1[S+]([O-])c1ccc(Cl)cc1)N1CCCCC1 (stereo not drawn) [Compound 11] | 5 µg/mL
27 | CSC(Nc1ccc(F)cc1)=C(C#N)C(=O)c1ccco1 [Compound 22] | 20 µg/mL

Same assay, conditions: Mycobacterium tuberculosis, H37RV

Row | Compound | MIC
28 | N#CCSc1ccc(C#N)cc1 [Compound 24] | 5 µg/mL (≈ 28.7 µM)

What follows are molecules tested on Mtu H37Rv (assay: Alamar Blue reduction inhibition measured by TAACF). Conditions: Mycobacterium tuberculosis, at 6.25 μg/ml, as measured by TAACF.
Format: cell-based, M. tuberculosis

Row | Compound | inhibition at 6.25 µg/mL
29 | O=S(=O)(c1ccc(Br)cc1)c1snnc1-c1ccccc1 [Compound 6] | 32%
30 | O=S(=O)(c1ccc(Cl)c(Cl)c1)c1snnc1-c1ccccc1 [Compound 7] | 96%

What follows are molecules tested against T1, M. tuberculosis RecA intein (Mycobacterium tuberculosis, UniProt P9WHJ3) (assay: not given). Conditions: not given.
T1 sequence (P9WHJ3 with tags, fused parts or gaps): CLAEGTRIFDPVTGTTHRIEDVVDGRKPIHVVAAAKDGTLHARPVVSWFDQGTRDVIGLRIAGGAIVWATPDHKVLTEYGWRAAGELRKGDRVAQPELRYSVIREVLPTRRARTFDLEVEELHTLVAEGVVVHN
Format: biochemical

Row | Compound | pIC50
31 | CC1(C)CC(=O)c2c(S(C)(=O)=O)sc(C(=O)OCc3ccccc3)c2C1 [Compound 30] | 5.30
32 | Oc1ccc(Br)cc1CNc1cccc(C(F)(F)F)c1 [Compound 70] | 4.92
33 | O=C(c1c[nH]c(C(=O)C(Cl)(Cl)Cl)c1)c1ccc(Cl)cc1Cl [Compound 62] | > 5.30
34 | N#CC1(C#N)C(c2ccccc2Cl)C1(C#N)C#N [Compound 21] | 5.10
35 | COc1cccc(N(NC(=O)C(O)(c2cccc(C(F)(F)F)c2)c2cccc(C(F)(F)F)c2)C(=O)CCl)c1 [Compound 51] | 5.70
36 | O=C(Oc1ccc(C=Nc2ccc(F)cc2)cc1)c1cccs1 [Compound 78] | 4.89
37 | CCOC(=O)c1cnc2c(F)ccc(F)c2c1Oc1cncc(Cl)c1 [Compound 67] | > 5.30
38 | CS(=O)(=O)c1cc(C(F)(F)F)cc(S(C)(=O)=O)c1S(C)(=O)=O [Compound 3] | 5.00
39 | CCOC(=O)CSc1nc2c(c(-c3cccs3)c1C#N)CN(C)CC2 [Compound 56] | > 4.46
40 | O=C(Oc1cc(OC(=O)c2ccco2)cc(OC(=O)c2ccco2)c1)c1ccco1 [Compound 75] | > 5.30
41 | CC1(C)CC(=O)C2(C(=O)C1)C(c1ccc(Cl)cc1Cl)C2(C#N)C#N (stereo not drawn) [Compound 37] | 5.30
42 | CCOC(=O)c1cc(C#N)c(Sc2nnc(SCC3CC3)s2)nc1C(F)(F)F [Compound 71] | > 5.30
43 | O=C(Oc1ccc(Br)cc1)c1ccco1 [Compound 76] | 5.10
44 | O=C(CCl)N1CCN2C(=O)c3ccccc3C12c1ccc(Cl)cc1 (stereo not drawn) [Compound 13] | 5.40
45 | N#CC1(C#N)C(c2cccc(I)c2)C(C(N)=O)N2C=Cc3ccccc3C21 (stereo not drawn) [Compound 17] | 4.70
46 | CCOC(=O)c1nnc(-c2ccccc2)nc1Sc1ccccc1C(=O)OC [Compound 41] | 5.70
47 | Oc1cc(OCc2ccc(C(F)(F)F)cc2)ccc1-c1cc[nH]n1 [Compound 44] | 5.30
48 | O=C(Sc1ccccc1)c1ccc2ncsc2c1 [Compound 68] | 5.10
49 | CCOC(=O)c1cc(C#N)c(Sc2nnc(SC)s2)nc1C(F)(F)F [Compound 72] | > 5.30
50 | O=C(Nc1ccccc1)c1nnsc1S(=O)(=O)c1ccc(Cl)cc1 [Compound 10] | 5.10
51 | O=S(=O)(c1cccc(C(F)(F)F)c1)c1snnc1-c1ccccc1 [Compound 35] | 6.00
52 | O=C(OCn1ncc(Cl)c(Cl)c1=O)c1cccc(C(F)(F)F)c1 [Compound 38] | 6.10
53 | O=C1CSC(c2ccc(Cl)cc2)C(=O)N1c1ccc(C(F)(F)F)cc1 (stereo not drawn) [Compound 8] | 5.30
54 | O=S(=O)(c1ccc(Br)cc1)c1snnc1-c1ccccc1 [Compound 6] | 5.40
55 | O=C(c1c[nH]c(C(=O)C(Cl)(Cl)Cl)c1)c1cccc(Cl)c1Cl [Compound 59] | > 5.30
56 | Cc1nn(C(N)=S)c(O)c1C(c1cccc(Cl)c1Cl)C(C#N)C#N (stereo not drawn) [Compound 81] | 4.92

Row | Compound | pIC50
57 | O=C(Oc1ccc(C=Nc2ccc(F)cc2)cc1)c1ccco1 [Compound 77] | 4.52
58 | O=S(=O)(Cc1cccc(C(F)(F)F)c1)c1snnc1-c1ccccc1 [Compound 36] | 5.30
59 | O=C(Nc1ccc(F)cc1)c1nnsc1S(=O)(=O)c1ccc(Cl)cc1 [Compound 12] | 5.52
60 | CCCN(CCC)S(=O)(=O)c1ccc(C(=O)SCC(=O)OCC)cc1 [Compound 2] | 5.10
61 | COc1ccc(NC(=O)C(Cl)=C(Cl)[S+]([O-])Cc2ccc(C)cc2)cn1 (stereo not drawn) [Compound 43] | 5.52
62 | N#Cc1nccnc1S(=O)(=O)c1cccs1 [Compound 31] | 5.30
63 | N#CCSc1ccc(C#N)cc1 [Compound 24] | 4.96
64 | Oc1cc2c(cc1C(c1ccc(Cl)c(Cl)c1)N1CCCC1)OCO2 (stereo not drawn) [Compound 1] | 5.30
65 | COc1ccc(NC(=O)C(Cl)=C(Cl)[S+]([O-])Cc2ccccc2)cn1 (stereo not drawn) [Compound 9] | 5.00
66 | N#CC(N)=C(C#N)NCc1ccccc1Sc1ccc(Cl)cc1 [Compound 29] | 4.52
67 | CC(=O)c1cc([N+](=O)[O-])c(Sc2ccc(Cl)cc2)s1 [Compound 4] | 5.30
68 | Cc1cc(S(=O)(=O)c2ccc(C(F)(F)F)cc2[N+](=O)[O-])c(Cl)cc1Cl [Compound 66] | > 5.30
69 | Oc1cc2c(cc1C(c1ccc(C(F)(F)F)cc1)N1CCOCC1)OCO2 (stereo not drawn) [Compound 69] | > 5.30
70 | Cc1cc(Oc2c([N+](=O)[O-])cc(C(F)(F)F)cc2[N+](=O)[O-])ccc1Cl [Compound 64] | 5.22
71 | O=C(Oc1ccc(Cl)cc1)c1snnc1-c1ccccc1 [Compound 23] | 5.52
72 | COC(=O)c1sc(S(C)(=O)=O)c(C#N)c1-c1cc(C(C)(C)C)oc1C [Compound 33] | 5.40
73 | O=[N+]([O-])c1cc(C(F)(F)F)cc([N+](=O)[O-])c1Sc1nc2ccccc2[nH]1 [Compound 55] | 4.82
74 | c1ccc(-c2cnc3nonc3n2)cc1 [Compound 74] | > 5.30
75 | C=CCn1c(Sc2ncnc3c2sc(=S)n3CC=C)nnc1-c1ccccc1 [Compound 27] | 5.70
76 | O=C(CCl)c1ccc(Cc2ncc(C(F)(F)F)cc2Cl)s1 [Compound 57] | > 5.30
77 | Cn1cc(C(=O)c2cccc(Cl)c2Cl)cc1C(=O)C(Cl)(Cl)Cl [Compound 40] | 5.30
78 | [O-][S+](c1ccc(C(F)(F)F)cc1)c1cnn2c(Cl)nnc2c1 (stereo not drawn) [Compound 45] | 5.30
79 | O=C(Nn1c(C2CCCCC2)nc2ccccc2c1=O)c1cc([N+](=O)[O-])cc([N+](=O)[O-])c1Cl [Compound 53] | 6.00
80 | O=C(c1nnsc1[S+]([O-])c1ccc(Cl)cc1)N1CCCCC1 (stereo not drawn) [Compound 11] | 5.40
81 | CSC(Nc1ccc(F)cc1)=C(C#N)C(=O)c1ccco1 [Compound 22] | 5.52
